Patent publication US20240139149A1, “THERAPEUTIC USES OF UROLITHIN DERIVATIVES” (Vandria SA, priority 2022, published 2024)

Key:
Format in all cases: cell-based
mouse T lymphocytes = experiment: Mitochondrial content (Mitotracker positive cells) in mouse T lymphocytes; conditions: 2 μM, 72 h
Experimental: Splenic murine T cells were isolated from mice aged 6-20 weeks by negative selection with EasySep mouse T cell isolation kit (Stem cell) according to the manufacturer's instructions. T cell activation was initiated using CD3/CD28 activation beads (11456D; ThermoFisher Scientific) at a ratio of 25 μl dynabeads per 0.5×10^6 T-cells. Cells were activated with test compounds at 2 μM or DMSO in T cell activation Medium (RPMI (ThermoFisher Scientific) 10% FBS (South America origin), 10 mM Hepes (Sigma), 1× Non-Essential Amino Acid, 1 mM Sodium Pyruvate, 50 μM β-Mercaptoethanol, 100 U/ml penicillin, 100 μg/ml streptomycin and 2 mM Glutamax (ThermoFisher Scientific) for 72 h. For subsequent analysis, activating beads were magnetically removed prior staining.
For flow cytometric analysis of mitochondria 500 μl of Mitotracker Red (200 nM; ThermoFisher) was applied followed by surface staining.
Cell doublets and cells debris were excluded from the analysis by gating FSC-A vs FSC-H followed by SSC-A vs SSC-H dot plots and FSC-A vs SSC-A dot plots, respectively. eFluor 780 highly positive cells, i.e, dead cells, were gated out of the analysis. Data was acquired on Canto II (BD), Fortessa (BD) and Aurora (Cytek) cytometers and analyzed with FlowJo.

[1] = tested on: cortical neurons and microglial cells injured with Aβ1-42; experiment: Rat primary culture of cortical neurons and microglial cells injured with Aβ1-42
Experimental: Pregnant female rat (Wistar) of 15 days of gestation were killed using a deep anesthesia with CO2 chamber and a cervical dislocation. Fetuses were collected and immediately placed in ice-cold L15 Leibovitz medium with a 2% penicillin (10,000 U/mL) and streptomycin (10 mg/mL) solution (PS) and 1% bovine serum albumin (BSA). Cortex were specifically dissected and then were treated for 20 min at 37° C. with a trypsin-EDTA solution at a final concentration of 0.05% trypsin and 0.02% EDTA. The dissociation was stopped by addition of Dulbecco's modified Eagle's medium (DMEM) with 4.5 g/L of glucose, containing DNAse I grade II (final concentration 0.5 mg/mL) and 10% fetal calf serum (FCS). Cells were mechanically dissociated by three forced passages through the tip of a 10-mL pipette. Cells were then centrifuged at 515×g for 10 min at 4° C. The supernatant was discarded, and the pellet was resuspended in a defined culture medium consisting of Neurobasal medium with a 2% solution of B27 supplement, 2 mmol/liter of L-glutamine, 2% of PS solution, 10 ng/mL of brain-derived neurotrophic factor (BDNF), 2% of heat-inactivated horse serum, 2% of heat-inactivated FCS, 1 g/L of glucose, 1 mM of sodium pyruvate, and 100 μM of non-essential amino acids. The presence of serum in the medium allows the growth of the microglial cells. Viable cells were counted in a Neubauer cytometer, using the trypan blue exclusion test.
The cells were seeded at a density of 45 000 per well in 96-well plate precoated with poly-L-lysine and were cultured at 37° C. in an air (95%)—CO2 (5%) incubator. The medium was changed every 2 days.
On day 11 of culture, the compounds were dissolved in the appropriate vehicle and pre-incubated with the primary cortical neurons for one hour (1 h), before Aβ1-42 exposure.
On day 11 of culture, the cortical neurons were injured with the AP 1-42 peptide. AP 1-42 peptide was dissolved in the defined culture medium mentioned above, at an initial concentration of 20 μM. The solution was gently agitated for 3 days at 37° C. in the dark and immediately used after being properly diluted in culture medium to the concentration used (5 μM, 0.5 μM oligomers precisely evaluated by automatic WB). The AP 1-42 solution was applied on the culture at […] (0.5 μM oligomers, AβO), in presence of the compound, for 72 hours.
72 hours after the application of Aβ, the cell culture supernatant was removed. Cells were then washed with phosphate-buffered saline (PBS) and fixed with a cold solution of ethanol (95%) and acetic acid (5%) for 5 min at −20° C. After two washing steps with cold PBS, cells permeabilized and unspecific binding sites were blocked with a solution of PBS containing 0.1% of saponin and 1% of FCS, for 15 min at RT. Cells were incubated for 2 hours with: • a) Monoclonal anti-MAP2 antibody produced in mouse at dilution of 1/400 in PBS containing 1% FCS, 0.1% saponin, for 2 hours at room temperature. • b) Rabbit polyclonal antibody anti-SIRP alpha/CD172a (OX-41) at dilution of 1/400 in PBS containing 1% fetal calf serum and 0.1% of saponin (this antibody stains specifically the microglia and will allow to evaluate the activation of the microglial cells).
For each condition, 30 pictures (representative of the whole well area) were automatically taken using ImageXpress® (Molecular Devices) at 20× magnification using the same acquisition parameters. From images, the analyses were automatically performed by MetaXpress® (Molecular Devices). The following read-outs were measured: • Total neuron survival (number of MAP-2(+) neurons), • Total length of neurite network of MAP-2(+) neurons (in μm) • Total area of activated microglia (area of OX-41 signal, in μm^2)
All values are expressed as mean+/−SEM (standard error of the mean). Statistical analysis was performed by one-way ANOVA followed by Fisher's LSD test, with GraphPad Prism. p<0.05 was considered significant.

splenic murine T cells = experiment: Murine T cells stimulated with αCD3/αCD28 in presence of UA; conditions: ICG001 10 μM plus UA 50 μM, 48 h
Experimental: Splenic murine T cells were isolated from mice aged 6-20 weeks by negative selection with EasySep mouse T cell isolation kit (Stem cell) according to the manufacturer's instructions. To monitor T cell proliferation, purified T cells were loaded with CellTrace Violet (C34557 ThermoFisher Scientific). T cell activation was initiated using αCD3/CD28 activation beads (11456D; ThermoFisher Scientific) at a ratio of 25 μl dynabeads per 0.5×106 T-cells. Cells were activated with 25-50 μM Urolithin A (Tocris) or DMSO in T cell activation Medium (RPMI (ThermoFisher Scientific) 10% FBS (South America origin), 10 mM Hepes (Sigma), 1×Non-Essential Amino Acid, 1 mM Sodium Pyruvate, 50 µM β-Mercaptoethanol, 100 U/mL penicillin, 100 μg/mL streptomycin and 2 mM Glutamax (ThermoFisher Scientific) for the indicated durations. In selected experiments, cells were stimulated in the presence of inhibitors, namely TCFli (ICG-001; SelleckChem; […]) and PGC-lai (SR-18292, Sigma-Aldrich; […]). For subsequent analysis, activating beads were magnetically removed prior antibody staining. For human T cells, peripheral blood mononuclear cells were purified with a Ficoll-Paque (GE healthcare) gradient. T cells were enriched with EasySep Human T Cell Isolation Kit (StemCell) and activated with dynabead Human T-Activator CD3/CD28 for T Cell Expansion and Activation Kit (11131D; ThermoFisher Scientific), similar to murine T cell stimulation. When the subsequent activation and expansion of CAR T cells was studied, plates were coated with 1 μg/mL anti-human CD3 (αCD3; clone OKT3) and thawed PBMC were cultivated with […] anti-human CD28 (αCD28; 15E8, both Miltenyi Biotec) containing media for three days. (NutriT media (4Cell® Nutri-T media (Sartorius) containing 0.5% penicillin/streptomycin) supplemented with IL-7 (25 U/mL) and IL-15 […] (all Miltenyi Biotec)).
Tumors were minced and digested with Tumor & Tissue Dissociation Reagent (BD Horizon) for 30 min. The remaining organ pieces were filtered through a 70 µm cell strainer. Cells were then washed with PBS 1% BSA and 2 mM EDTA. Immune cells were enriched on a 30%/40%/75% Percoll gradient after a 1700 rpm 17 min centrifugation. Then, tumor immune filtrates or activated T cells were stained with Fixable Viability Dye-eF780 (65-0865-14; eBioscience), αCD45-FITC (30-F11; 11-0451-85; eBioscience), αCD11b-BV650 (M1/70; 56340; BD) α-CD11c-BV785 (HL3; 563735; BD), aLy6G-BV605 (53-6.7; 563005; BD), aLy6C-AF700 (HK1.4; 128024; Biolegend), aF4/80-PE (BM8; 12-4801-82, eBioscience), aPD-L1-PECy7 (MIH5; 25-5982-80, eBioscience); or with Fixable Viability Dye-eF780 (ebioscience), αCD45-BV786 (30-F11; 564225; BD), αCD4-BUV496 (GK1.5; 564667; BD), αCD8-BV605 (100744; Biolegend), aPD1-APC (J43; 17-9985-82; eBioscience), aTIM-3-PECy7 (RMT3-23; 119715; Biolegend), aCTLA4-PE (UC10-4B9; 106305; Biolegend) and aLag3-BV421 (C9B7W; 125221, Biolegend); or with Fixable Viability Dye-eF780 (eBioscience), αCD4-FITC (H129.19; 553650; BD), αCD8-APC (53-6.7; 17-0081-83; eBioscience), αCD44-AF400 (IM7; 103026; Biolegend), αCD62L-BV785 (MEL-14; 104440; Biolegend), αSca-1-PerCP-Cy5.5 (D7; 45-5981-82; eBioscience), αCD95-PE (Jo2; 554258; BD); or with Fixable Viability Dye-eF780 (eBioscience), αCD8-BV650 (53-6.7; 563234; BD), αCD4-BUV496 (GK1.5; 564667; BD), αCD127-APC (A7R34; 17-1271-82; eBioscience), αCD95-FITC (SA367H8;152605; Biolegend), αCD44-AF400 (IM7; 103026; Biolegend), αCD62L-BV785 (MEL-14; 104440; Biolegend), αSca-1-PerCP-Cy5.5 (D7; 45-5981-82; eBioscience) followed by intracellular staining of aTCF1-PE (S33-966; 564217; BD), or PGC-1α (sc-518025; D-5; santa cruz), or aCyclinD1 (MA5-28534, DCS-6; Invitrogen) with transcription factor buffer set kit (BD Biosciences). To study cytokine expression, tumor immune infiltrates were stimulated ex vivo with 20 ng/mL PMA and […] Ionomycin (Sigma) for 3 h in T cell activation medium with Brefeldin A (Biolegend). […]

[2] = 125 and 250 nM, Aβ1-42 72 hours

Row | Compound | increase in the percentage of Mitotracker positive cells vs DMSO (mouse T lymphocytes) [%] | percentage of Mitotracker positive cells (mouse T lymphocytes; DMSO 44%) [%] | microglial activation (conclusion) [1] | neuroprotection in the inflammatory in vitro model (conclusion) [1] | microglial activation (OX-41) [1, 2] | neurite network of cortical neurons (MAP-2) [1, 2] | survival of cortical neurons (MAP-2) [1, 2] | UA-induced TSCM formation in presence of TCF-1 inhibitor (splenic murine T cells)
1 | Cc1cc2c(cc1O)OC(C)(C)c1cc(O)c(C)cc1-2 [117A, 2,6,6,9-tetramethyl-6H-benzo[c]chromene-3,8-diol] | 30 | 57.3 | significantly reduce | neuroprotective | decrease | significantly protect | significantly protect | 
2 | O=C1[C@H](Cc2ccc(O)cc2)N2C(=O)CCN(C(=O)NCc3ccccc3)[C@H]2CN1Cc1cccc2ccccc12 [ICG001] |  |  |  |  |  |  |  | abrogated
